Measurements published in patent US20210228552A1, “METHOD FOR ADJUSTING RAS UBIQUITINATION” (Xiamen University, priority 2018, published 2021).
“Also recorded” adds a separate entry of the source.

Key:
K-Ras-G12V [1] = target: T1, K-Ras-G12V (Homo sapiens, UniProt P01116, G12V); assay: Exogenous Flag-K-Ras-G12V protein level in transfected HEK293T cells (Western blotting); assay type: cell-based; conditions: HEK293T cells transfected with Flag-K-Ras-G12V, 2.5-20 μM, 24 h, FIG. 3(b)
Method: Compounds that can Decrease the Level of Exogenous K-Ras-G12V were Screened in HEK293T Cells
1) Cell plating: HEK293T cells in logarithmic growth phase were inoculated into 12-well plates and cultured in 37° C. and 5% CO2 incubator. The best inoculation amount was at a cell density of 70%-90% when transfected the next day. […]
(§1) 3) Detection of K-Ras protein level: 24 hours after administration, liquid in the well was discarded, the cells were routinely collected, the cells were rinsed twice with 1×PBS, and the cell lysate was added to extract the total cell protein. The protein concentration was determined by BCA method. […]
(§2) 4) Calculation of single point K-Ras protein degradation rate: quantitative and calibration analysis on Flag-K-Ras and β-actin were performed by Image-Lab software, and then the intracellular Flag-K-Ras degradation rate was calculated according to the following formula: single point Flag-K-Ras protein degradation rate (%)=(control group-administration group)/control group×100%. […]

MCF-7 cells = assay: Colony forming ability on soft agar, MCF-7 cells; assay type: cell-based, Human; conditions: 10-30 days, FIG. 4(a)
Method: (§3) i. 1% agar was prepared and sterilized under high pressure. 1% Agar was heated and melted in a boiling water bath before use, then cooled in a 40° C. water bath (standing for at least 30 minutes and cooling the agar to 40° C.); and 2×DMEM/FBS was placed in a warm bath at the same time;
(§4) ii. 0.5% bottom agar was prepared by mixing 1% agar and 2×DMEM/FBS in a sterile tube at a volume ratio of 1:1. The mixture was quickly added to a 6-well plate, 1.5 mL per well, gently shake it well, and it was stood at room temperature to be solidified (after solidification, it can be stored at 4° C. for 1 week. Leave at room temperature for at least 30 minutes before use to restore it to room temperature).
(§5) i. A final concentration of 0.3% agar+1×DMEM/FBS mixture was prepared in sterile tubes by using 1% agar at a temperature of 40° C., 2×DMEM/FBS and sterile water. The prepared mixed solution was put into a 40° C. water bath kettle for later use;
(§6) ii. The cells were digested by trypsin and counted, and the cell density was adjusted according to the needs of the experiment; […]

SW620 cells = assay: Colony forming ability on soft agar, SW620 cells; assay type: cell-based, Human; conditions: 10-30 days, FIG. 4(b)
Method: as §3, §4, §5, §6

HT-29 cells = assay: Colony forming ability on soft agar, HT-29 cells; assay type: cell-based, Human; conditions: HT-29 cells (Raf kinase mutation), 10-30 days, FIG. 4(c)
Method: as §3, §4, §5, §6

K-Ras-G12V [2] = target: T1, K-Ras-G12V; assay: Endogenous K-Ras-G12V protein level in SW620 cells (Western blotting); assay type: cell-based; set-up: endogenous in cells; host or cells: SW620; conditions: 2.5-20 μM, 24 h, FIG. 3(a)
Method: Compounds that can Decrease the Level of Endogenous K-Ras-G12V were Screened in SW620 Cells
1) Cell plating: SW620 cells in logarithmic growth phase were inoculated into 24-well plates with 2×10^4/well and cultured in 37° C. and 5% CO2 incubator.
2) Cell administration: after 24 hours of culture, various drug stock solutions were diluted […]; the stock solution from the 24-well plate was discarded, then the prepared drug solution was added, with taking the DMSO group as a blank control; after the drug was added, it was transferred to the CO2 incubator at 37° C. to continue the culture.
as §1
as §2, with “K-Ras” for “Flag-K-Ras”

O=C(NCc1ccccc1C(F)(F)F)c1c[nH]c(-c2n[nH]c3ncccc23)c1 [ZT-10-158-01]
level of exogenous K-Ras-G12V protein (K-Ras-G12V [1]): effective in decreasing K-Ras protein levels in cells, and in a positive concentration-dependent correlation; also recorded: effective in decreasing the level of exogenous K-Ras-G12V protein in HEK293T cells with a positive concentration-dependent inhibitory effect | colony forming ability on agar (MCF-7 cells): can selectively inhibit the colony formation; also recorded: effective in inhibiting colony forming ability | colony forming ability on agar (SW620 cells): can selectively inhibit the colony formation; also recorded: effective in inhibiting colony forming ability | colony forming ability on agar (HT-29 cells): no significant inhibitory effect; also recorded: did not inhibit the colony forming ability | level of endogenous K-Ras-G12V protein (K-Ras-G12V [2]): effective in decreasing K-Ras protein levels in cells, and in a positive concentration-dependent correlation; also recorded: effective in decreasing the level of endogenous K-Ras-G12V protein in SW620 cells with a positive concentration-dependent inhibitory effect
